# Results as given in the supplement of paper PMC5579334.
# ± gives the standard deviation of the averaged measurements.
# What was measured:
# [1] = system: HSC2 (primary human Schwann cells); test: drug sensitivity score (DSS, CellTox-Green cytotoxicity, 72 h) (DSS (dimensionless)); higher = more cytotoxic; extreme values may be limits of the assay
# Method in brief: (§1)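 MPNST cell lines and primary human Schwann cells were incubated 72 h at 37 °C in 384-well plates holding five 10-fold compound dilutions. CellTox-Green was added before seeding at a final 1:1000 dilution and reported fluorescence from DNA released by disrupted cells. Signals were scaled to vehicle and positive-control wells, and cultures failing plate quality control were dropped. Drug sensitivity score and relative IC50 come from four-parameter logistic fits, with IC50 censored at the top concentration.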
# [2] = system: HSC1 (primary human Schwann cells); test: as above
# Method in brief: as §1
# S1507-2 [3] = test: as above
# Method in brief: as §1
# HS-PSS [4] = test: as above
# Method in brief: as §1
# ST8814 [5] = test: as above
# Method in brief: as §1
# STS26T [6] = test: as above
# Method in brief: as §1
# HS-Sch-2 [7] = test: drug sensitivity score (DSS, CellTiter-Glo viability, 72 h) (DSS (dimensionless)); higher = more sensitive; extreme values may be limits of the assay
# Method in brief: (§2)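 MPNST cell lines and primary human Schwann cells (750–1000 cells per well) went into 384-well plates preprinted with each compound at five concentrations in 10-fold steps. Plates were incubated 72 h at 37 °C, 5% CO2. Viability was read as CellTiter-Glo ATP luminescence, scaled between vehicle and positive-control wells, with duplicates averaged where present. Percent inhibition is at the top concentration; drug sensitivity score and relative IC50 (censored at top concentration) come from four-parameter logistic fits.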
# [8] = system: HSC2 (primary human Schwann cells); test: as above
# Method in brief: as §2
# [9] = system: HSC1 (primary human Schwann cells); test: as above
# Method in brief: as §2
# S1507-2 [10] = test: as above
# Method in brief: as §2
# S462 [11] = test: as above
# Method in brief: as §2
# HS-PSS [12] = test: as above
# Method in brief: as §2
# ST8814 [13] = test: as above
# Method in brief: as §2
# STS26T [14] = test: as above
# Method in brief: as §2
# YST-1 [15] = test: as above
# Method in brief: as §2
# HS-Sch-2 [16] = test: % inhibition of CellTiter-Glo viability at highest tested concentration (72 h), relative to DMSO and benzethonium chloride controls; higher = more inhibition
# Method in brief: as §2
# [17] = system: HSC2 (primary human Schwann cells); test: as above
# Method in brief: as §2
# [18] = system: HSC1 (primary human Schwann cells); test: as above
# Method in brief: as §2
# S1507-2 [19] = test: as above
# Method in brief: as §2
# S462 [20] = test: as above
# Method in brief: as §2
# HS-PSS [21] = test: as above
# Method in brief: as §2
# ST8814 [22] = test: as above
# Method in brief: as §2
# STS26T [23] = test: as above
# Method in brief: as §2
# YST-1 [24] = test: as above
# Method in brief: as §2
Compound,drug sensitivity score [1],drug sensitivity score [2],drug sensitivity score (S1507-2 [3]),drug sensitivity score (HS-PSS [4]),drug sensitivity score (ST8814 [5]),drug sensitivity score (STS26T [6]),drug sensitivity score (HS-Sch-2 [7]),drug sensitivity score [8],drug sensitivity score [9],drug sensitivity score (S1507-2 [10]),drug sensitivity score (S462 [11]),drug sensitivity score (HS-PSS [12]),drug sensitivity score (ST8814 [13]),drug sensitivity score (STS26T [14]),drug sensitivity score (YST-1 [15]),% inhibition (HS-Sch-2 [16]),% inhibition [17],% inhibition [18],% inhibition (S1507-2 [19]),% inhibition (S462 [20]),% inhibition (HS-PSS [21]),% inhibition (ST8814 [22]),% inhibition (STS26T [23]),% inhibition (YST-1 [24])
O=C(NC[C@H](O)CO)c1ccncc1Nc1ccc(I)cc1F [Pimasertib] (max concentration tested 10000 nM),0,0.153,5.35 ± 0.4,0,6.32,0.309,5.83,7.43,7.67,11.9 ± 1.4,11.9 ± 0.82,2.94,10.8,6.72,1.29,55.4%,65%,60.7%,81.8 ± 2.4%,83.69 ± 0.41%,44.3%,95.9%,42%,34.4%
O=C(CCBr)N1CCN(C(=O)CCBr)CC1 [Pipobroman] (max concentration tested 10000 nM),0,0,0,0,0,0,0,0,0,0,0,0,0,0,0,9.93%,0.945%,0.741%,-11.3 ± 2.3%,-17 ± 7.2%,1.73%,-3.56%,-2.55%,4.98%
CO[C@H](C(=O)[C@@H](O)[C@@H](C)O)[C@@H]1Cc2cc3cc(O[C@H]4C[C@@H](O[C@H]5C[C@@H](O)[C@H](O)[C@@H](C)O5)[C@@H](O)[C@@H](C)O4)c(C)c(O)c3c(O)c2C(=O)[C@H]1O[C@H]1C[C@@H](O[C@H]2C[C@@H](O[C@H]3C[C@](C)(O)[C@H](O)[C@@H](C)O3)[C@H](O)[C@@H](C)O2)[C@H](O)[C@@H](C)O1 [Plicamycin] (max concentration tested 10000 nM),12.6,10.6,10.4 ± 4.4,2.63,0,25.9,12.5,24.6,24.4,22.5 ± 0.9,24.32 ± 0.091,9.51,25.7,27,14.8,102%,87%,83.7%,87 ± 2.5%,97.26 ± 0.26%,96.8%,82.8%,95.8%,101%
Nc1cccc2c1C(=O)N(C1CCC(=O)NC1=O)C2=O (configuration not stated) [Pomalidomide] (max concentration tested 10000 nM),0,0,0.571 ± 0.72,0,0,0,0,0,0,0,0.575 ± 0.81,0,0,0,0,-6.26%,-10.6%,8.79%,-0.849 ± 0.56%,8.99 ± 10%,-13.4%,8.53%,2.08%,-0.59%
C[C@]12C=CC(=O)C=C1CC[C@@H]1[C@@H]2[C@@H](O)C[C@@]2(C)[C@H]1CC[C@]2(O)C(=O)CO [Prednisolone] (max concentration tested 10000 nM),0,0,0,0,0,0,0,0,0,0.89 ± 1.3,0,0,3.88,0,0.25,6%,-7.75%,6.78%,11.2 ± 15%,-0.231 ± 7%,-16.2%,15.6%,3.25%,12%
C[C@]12C=CC(=O)C=C1CC[C@@H]1[C@@H]2C(=O)C[C@@]2(C)[C@H]1CC[C@]2(O)C(=O)CO [Prednisone] (max concentration tested 10000 nM),0,0,0,0,0,0,0.07,0,0,0,0,0,0,0,0,12.9%,2.63%,-0.144%,0.647 ± 14%,-0.361 ± 2%,3.03%,-2.07%,4.83%,-5.67%
CNNCc1ccc(C(=O)NC(C)C)cc1 [Procarbazine] (max concentration tested 10000 nM),0,0,0.135 ± 0.19,0,0,0,0,0,0,0,0,0,0,0,0,-5.24%,3.15%,4.32%,-0.333 ± 1.2%,-14.6 ± 3.4%,4.68%,1.52%,4.63%,3.64%
Cn1cc(CNCC2CCN(c3ncc(C(=O)NO)cn3)CC2)c2ccccc21 [Quisinostat] (max concentration tested 1000 nM),7.35,7.77,17.2 ± 0.8,6.33,13.8,9,15.7,13.9,16,20.8 ± 1.1,20.6 ± 0.34,14.7,21,15.6,24.2,98.6%,95.7%,95.9%,102.2 ± 0.95%,103.4 ± 0.44%,93.3%,102%,99.4%,99%
